Experiments:
[1] = Rate of dissolution of rebaudioside A polymorph and amorphous forms in H2O; type: physicochemical
[2] = type: physicochemical
Protocol: A solution of rebaudioside A (>97% pure by HPLC ) was prepared in double distilled water (12.5 gm in 50 mL, 25% concentration) by stirring the mixture at 40° C. for 5 minutes. An amorphous form of rebaudioside A was formed by immediately using the clear solution for spray drying with the Lab-Plant spray drier SD-04 instrument (Lab-Plant Ltd., West Yorkshire, U.K.). The solution was fed through the feed pump into the nozzle atomizer which atomized it into a spray of droplets with the help of a constant flow of nitrogen/air.

[3] = Sensory evaluation of sweetness linger by expert panel; type: in vivo; design: key: 0: no sweetness linger; 1: very slight sweetness linger; 2: slight sweetness linger; 3: moderate sweetness linger; 4: moderately high sweetness linger; 5: high sweetness linger; details: for sweetness linger: scale 0-5; for Sweetness Linger rating (defined for controls of the protocol): sucrose, 500 ppm control sample, values defined as scale anchors
Protocol: Sensory evaluation of the samples prepared in Example Set G was carried out under the following protocol, similar to that described hereinabove. In this test protocol, none of the samples were swallowed. All samples were expectorated and the mouth was rinsed with water after the tasting. Immediately upon sensing maximal sweetness, the sample was expectorated, the mouth was rinsed with water and the rate of sweetness decay (“Sweetness Linger”) was measured, where attention was focused on the sweetness 3-4 min after the water rinse. After sample tasting was complete, a salty oyster cracker was chewed followed by a water rinse, and at least 5 minutes followed before tasting the next sample. The sweetness linger was rated by a panel of experts in the sensory evaluation of foods and beverages using the following scale: 0=no sweetness linger, 1=very slight sweetness linger, 2=slight sweetness linger, 3=moderate sweetness linger, 4=moderately high sweetness linger, 5=high sweetness linger.
The “Sweetness Linger” rating for sucrose observed by this protocol is defined as 0. The Sweetness Linger of a 500 ppm of EBA control sample is defined as 5. Experimental samples were tasted by the same protocol, always allowing sufficient time between samples to ensure re-equilibration of the sensory system. Re-tasting of control samples during the course of the experiment was allowed and encouraged.
The comparison taste test was performed between two controls and addition of sweet taste improving additive on the onset and/or sweetness linger.
Sweet taste improving compositions were combined with a EBA solution to determine their effect on sweetness linger. Screening of the initial sample, or further dilutions, allowed identification of concentrations which were just above-threshold, herein defined as “near-threshold concentrations.” The near-threshold additive concentrations, a 6- to 100-fold higher additive concentration (depending on the off-taste intensity), and a mid-level additive concentration (halfway between the near-threshold and higher additive concentration) were evaluated to determine the effect on sweetness linger of a REBA solution.
Formulations of a 500 ppm EBA in a phosphoric acid solution (75%) at a pH of 2.5 with phosphoric acid or a pH of 3.1 with citric acid and potassium citrate were prepared prior to the addition of the additives at the three levels of concentration.
Sensory evaluation using the protocol described in Example Set G then was used to evaluate the sweetness linger of the REBA solutions.

Row | SMILES | Rate of dissolution in H2O at 25° C. [1] | Sweetness Linger rating (defined for controls of the protocol) [3] | further results
1 | C=C1C[C@@]23CC[C@H]4[C@@](C)(CCC[C@@]4(C)C(=O)O[C@@H]4O[C@H](CO)[C@@H](O)[C@H](O)[C@H]4O)[C@@H]2CC[C@]1(O[C@@H]1O[C@H](CO)[C@@H](O)[C@H](O[C@@H]2O[C@H](CO)[C@@H](O)[C@H](O)[C@H]2O)[C@H]1O[C@@H]1O[C@H](CO)[C@@H](O)[C@H](O)[C@H]1O)C3 [Form 3, rebaudioside A] | High (>30%/5 %/5 minutes | – | –
2 | C=C1C[C@@]23CC[C@H]4[C@@](C)(CCC[C@@]4(C)C(=O)O[C@@H]4O[C@H](CO)[C@@H](O)[C@H](O)[C@H]4O)[C@@H]2CC[C@]1(O[C@@H]1O[C@H](CO)[C@@H](O)[C@H](O[C@@H]2O[C@H](CO)[C@@H](O)[C@H](O)[C@H]2O)[C@H]1O[C@@H]1O[C@H](CO)[C@@H](O)[C@H](O)[C@H]1O)C3 [REBA, rebaudioside A] | – | 5 | sweetness linger ([3]; Example Set G: 400 ppm REBA in citric acid/potassium citrate composition equivalent to diet lemon-lime beverage, sugar control 8 g in 100 ml citrate buffer): 5; sweetness linger ([3]; Example Set H: 500 ppm REBA (H41: 360 ppm) in carbon-treated water, phosphoric acid (75%) to pH 2.4-2.5, sugar control 10 g in 100 ml): 5
3 | OC[C@H]1O[C@@](CO)(O[C@H]2O[C@H](CO)[C@@H](O)[C@H](O)[C@H]2O)[C@@H](O)[C@@H]1O [sugar, sucrose, reference compound] | – | 0 | –

Continued, in another order:

Row | Rate of dissolution in H2O at 25° C. [1] | SMILES | Sweetness Linger rating (defined for controls of the protocol) [3] | further results
4 | High (>35.0%/ %/5 minutes | C=C1C[C@@]23CC[C@H]4[C@@](C)(CCC[C@@]4(C)C(=O)O[C@@H]4O[C@H](CO)[C@@H](O)[C@H](O)[C@H]4O)[C@@H]2CC[C@]1(O[C@@H]1O[C@H](CO)[C@@H](O)[C@H](O[C@@H]2O[C@H](CO)[C@@H](O)[C@H](O)[C@H]2O)[C@H]1O[C@@H]1O[C@H](CO)[C@@H](O)[C@H](O)[C@H]1O)C3 [Form 4, rebaudioside A] | – | solubility in water at room temperature [2]: > 35.0%
5 | Very low (<0.2%/ %/60 minutes | C=C1C[C@@]23CC[C@H]4[C@@](C)(CCC[C@@]4(C)C(=O)O[C@@H]4O[C@H](CO)[C@@H](O)[C@H](O)[C@H]4O)[C@@H]2CC[C@]1(O[C@@H]1O[C@H](CO)[C@@H](O)[C@H](O[C@@H]2O[C@H](CO)[C@@H](O)[C@H](O)[C@H]2O)[C@H]1O[C@@H]1O[C@H](CO)[C@@H](O)[C@H](O)[C@H]1O)C3 [Form 1, rebaudioside A] | – | –
6 | Intermediate (<30%/ %/5 minutes | C=C1C[C@@]23CC[C@H]4[C@@](C)(CCC[C@@]4(C)C(=O)O[C@@H]4O[C@H](CO)[C@@H](O)[C@H](O)[C@H]4O)[C@@H]2CC[C@]1(O[C@@H]1O[C@H](CO)[C@@H](O)[C@H](O[C@@H]2O[C@H](CO)[C@@H](O)[C@H](O)[C@H]2O)[C@H]1O[C@@H]1O[C@H](CO)[C@@H](O)[C@H](O)[C@H]1O)C3 [Form 2, rebaudioside A] | – | –

Source: patent US8435588B2, “High-potency sweetener composition with an anti-inflammatory agent and compositions sweetened therewith” (The Coca-Cola Company, priority 2005, dated 2013)
